From patent publication US20100173022A1, “COMPOSITION FOR THE TREATMENT OF DIABETES MELLITUS AND METABOLIC SYNDROME” (priority 2007, published 2010)

Assays:
[1] = system: experimental diabetic rats (Streptozotocin-Nicotinamide model); experiment: 30-days study in Streptozotocin-Nicotinamide experimental diabetic rats; format: in vivo, rat; settings: after 10, 20 and 30 days of treatment vs base line (0 day); P<0.05
Method: In another study the effect of ADM01 on blood glucose levels in experimental diabetic rats, using the Streptozotocin-Nicotinamide model, was investigated. After confirming the stabilization of diabetes mellitus in the experimental animals a single dose study was carried out in which the effect of a single dose administration of different dosages of ADM01 on blood glucose levels was investigated against vehicle control.
After the single dose study, a 30-days study was carried out in which the effect of daily administration of ADM01 on blood glucose levels was investigated. The effect of doses of 200, 400 and 800 mg/kg body weight respectively were investigated.

rat islets = experiment: in vitro insulinotropic test using rat islets; format: cell-based; settings: dose 162(1 mM) micrograms; mean ± SEM
Source text: In an in vitro test using rat islets, the insulinotropic ability of ADM01 was investigated against standard (tolbutamide) and placebo control.

[2] = system: streptozotocin induced type I diabetes rats; experiment: Streptozotocin induced type I diabetes model; format: in vivo, rat; settings: insulin 2.5, single dose, at 2 hrs
Method: In another study streptozotocin was administered to the test animals, causing the destruction of the beta cells of pancreas. In rats a dose of STZ of 60 mg/kg ip causes stable hyperglycemia by day 7 post administration. Generally, this model mimics type I Diabetes Mellitus. Groups were treated for 15 days with ADM01, ADM01+insulin and insulin.
In the same study the effects of a single dose administration on fasting glucose levels was studied.

| Compound | serum blood glucose levels [1] | serum insulin levels [1] | Amount of insulin during stimulated insulin release (glucose, 16 mM) (rat islets) | Amount of insulin release at basal glucose levels (2 mM) (rat islets) | fall of FPG-levels [2] |
| --- | --- | --- | --- | --- | --- |
| CCCCNC(=O)NS(=O)(=O)c1ccc(C)cc1 [Tolbutamide] | significantly decreased | significantly increased | 239.48 ± 11.43 picomoles/L | 107.08 ± 15.35 picomoles/L |  |
| insulin |  |  |  |  | 23.3% |
